# From patent publication US20100267561A1, “HERBICIDAL PYRIDAZINONE DERIVATIVES” (priority 2007, published 2010)
# Tests used:
# Experiment in all cases: Test C pre-/postemergence plant response
# Assay type in all cases: in vivo
# [1] = system: winter barley (Hordeum vulgare)
# Summary of the method: (§1)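 Application timings covered preemergence and postemergence (1- to 4-leaf plants, 2 to 18 cm), using a non-phytotoxic solvent mixture that included a surfactant. Controlled-environment holding lasted 15 to 25 days before visual scoring, where 100 denotes complete control and 0 no effect.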
# [2] = system: Italian ryegrass (Lolium multiflorum)
# Summary of the method: as §1
# [3] = system: spring wheat (Triticum aestivum)
# Summary of the method: as §1
# [4] = Preemergence, 8 g ai/ha, scale 0 to 100 (0 no effect, 100 complete control)
# [5] = Preemergence, 16 g ai/ha, scale 0 to 100 (0 no effect, 100 complete control)
# [6] = Preemergence, 31 g ai/ha, scale 0 to 100 (0 no effect, 100 complete control)
# [7] = Preemergence, 62 g ai/ha, scale 0 to 100, 0 no effect, 100 complete control
# [8] = Postemergence, 8 g ai/ha, scale 0 to 100, 0 no effect, 100 complete control
# [9] = Postemergence, 16 g ai/ha, scale 0 to 100, 0 no effect, 100 complete control
# [10] = Postemergence, 31 g ai/ha, scale 0 to 100, 0 no effect, 100 complete control
# [11] = Postemergence, 62 g ai/ha, scale 0 to 100, 0 no effect, 100 complete control
smiles,measurement,setting,value
"Cc1cn(-c2ccc(Cl)cc2)nc1-c1c(O)cnn(C)c1=O [Compound 30, 4-[1-(4-chlorophenyl)-4-methyl-1H-pyrazol-3-yl]-5-hydroxy-2-methyl-3(2H)-pyridazinone]","Plant response rating, Barley, Winter",[1]; [4],0
same,"Plant response rating, Barley, Winter",[1]; [5],0
same,"Plant response rating, Barley, Winter",[1]; [6],0
same,"Plant response rating, Barley, Winter",[1]; [7],15
same,"Plant response rating, Ryegrass, Italian",[2]; [4],0
same,"Plant response rating, Ryegrass, Italian",[2]; [5],30
same,"Plant response rating, Ryegrass, Italian",[2]; [6],60
same,"Plant response rating, Ryegrass, Italian",[2]; [7],75
same,"Plant response rating, Wheat, Spring",[3]; [4],0
same,"Plant response rating, Wheat, Spring",[3]; [5],0
same,"Plant response rating, Wheat, Spring",[3]; [6],0
same,"Plant response rating, Wheat, Spring",[3]; [7],20
Cn1ncc(O)c(-c2nn(-c3ccc(Cl)cc3)cc2Cl)c1=O [Compound 28],"Plant response rating, Barley, Winter",[1]; [4],0
same,"Plant response rating, Barley, Winter",[1]; [5],0
same,"Plant response rating, Barley, Winter",[1]; [6],0
same,"Plant response rating, Barley, Winter",[1]; [7],40
same,"Plant response rating, Ryegrass, Italian",[2]; [4],0
same,"Plant response rating, Ryegrass, Italian",[2]; [5],15
same,"Plant response rating, Ryegrass, Italian",[2]; [6],90
same,"Plant response rating, Ryegrass, Italian",[2]; [7],95
same,"Plant response rating, Wheat, Spring",[3]; [4],0
same,"Plant response rating, Wheat, Spring",[3]; [5],0
same,"Plant response rating, Wheat, Spring",[3]; [6],35
same,"Plant response rating, Wheat, Spring",[3]; [7],50
"CCc1c(C)c(-c2ccc(Cl)cc2)nn1-c1c(O)cnn(C)c1=O [Compound 26, 4-[3-(4-chlorophenyl)-5-ethyl-4-methyl-1H-pyrazol-1-yl]-5-hydroxy-2-methyl-3(2H)-pyridazinone]","Plant response rating, Barley, Winter",[1]; [8],0
same,"Plant response rating, Barley, Winter",[1]; [9],0
same,"Plant response rating, Barley, Winter",[1]; [10],10
same,"Plant response rating, Barley, Winter",[1]; [11],40
same,"Plant response rating, Barley, Winter",[1]; [4],0
same,"Plant response rating, Barley, Winter",[1]; [5],0
same,"Plant response rating, Barley, Winter",[1]; [6],10
same,"Plant response rating, Barley, Winter",[1]; [7],10
same,"Plant response rating, Ryegrass, Italian",[2]; [8],70
same,"Plant response rating, Ryegrass, Italian",[2]; [9],85
same,"Plant response rating, Ryegrass, Italian",[2]; [10],95
same,"Plant response rating, Ryegrass, Italian",[2]; [11],100
same,"Plant response rating, Ryegrass, Italian",[2]; [4],15
same,"Plant response rating, Ryegrass, Italian",[2]; [5],75
same,"Plant response rating, Ryegrass, Italian",[2]; [6],100
same,"Plant response rating, Ryegrass, Italian",[2]; [7],100
same,"Plant response rating, Wheat, Spring",[3]; [8],10
same,"Plant response rating, Wheat, Spring",[3]; [9],10
same,"Plant response rating, Wheat, Spring",[3]; [10],30
same,"Plant response rating, Wheat, Spring",[3]; [11],30
same,"Plant response rating, Wheat, Spring",[3]; [4],0
same,"Plant response rating, Wheat, Spring",[3]; [5],0
same,"Plant response rating, Wheat, Spring",[3]; [6],25
same,"Plant response rating, Wheat, Spring",[3]; [7],25
Cc1cc(-c2ccc(Cl)cc2)nn1-c1c(OS(=O)(=O)c2ccccc2[N+](=O)[O-])cnn(C)c1=O [Compound 51],"Plant response rating, Barley, Winter",[1]; [4],0
same,"Plant response rating, Barley, Winter",[1]; [5],0
same,"Plant response rating, Barley, Winter",[1]; [6],0
same,"Plant response rating, Barley, Winter",[1]; [7],40
same,"Plant response rating, Ryegrass, Italian",[2]; [4],0
same,"Plant response rating, Ryegrass, Italian",[2]; [5],90
same,"Plant response rating, Ryegrass, Italian",[2]; [7],90
same,"Plant response rating, Wheat, Spring",[3]; [4],0
same,"Plant response rating, Wheat, Spring",[3]; [5],0
same,"Plant response rating, Wheat, Spring",[3]; [6],60
same,"Plant response rating, Wheat, Spring",[3]; [7],75
Cc1cc(-c2ccc(Cl)cc2)nn1-c1c(OC(=O)OCC(C)C)cnn(C)c1=O [Compound 57],"Plant response rating, Barley, Winter",[1]; [8],0
same,"Plant response rating, Barley, Winter",[1]; [9],15
same,"Plant response rating, Barley, Winter",[1]; [10],15
same,"Plant response rating, Barley, Winter",[1]; [11],90
same,"Plant response rating, Barley, Winter",[1]; [4],0
same,"Plant response rating, Barley, Winter",[1]; [5],0
same,"Plant response rating, Barley, Winter",[1]; [6],20
same,"Plant response rating, Barley, Winter",[1]; [7],60
same,"Plant response rating, Ryegrass, Italian",[2]; [8],75
same,"Plant response rating, Ryegrass, Italian",[2]; [9],98
same,"Plant response rating, Ryegrass, Italian",[2]; [10],100
same,"Plant response rating, Ryegrass, Italian",[2]; [11],100
same,"Plant response rating, Ryegrass, Italian",[2]; [4],65
same,"Plant response rating, Ryegrass, Italian",[2]; [5],85
same,"Plant response rating, Ryegrass, Italian",[2]; [6],100
same,"Plant response rating, Ryegrass, Italian",[2]; [7],100
same,"Plant response rating, Wheat, Spring",[3]; [8],0
same,"Plant response rating, Wheat, Spring",[3]; [9],25
same,"Plant response rating, Wheat, Spring",[3]; [10],75
same,"Plant response rating, Wheat, Spring",[3]; [11],75
same,"Plant response rating, Wheat, Spring",[3]; [4],20
same,"Plant response rating, Wheat, Spring",[3]; [5],20
same,"Plant response rating, Wheat, Spring",[3]; [6],65
same,"Plant response rating, Wheat, Spring",[3]; [7],90
Cc1cc(-c2ccc(Cl)cc2)nn1-c1c(OC(=O)c2ccccc2)cnn(C)c1=O [Compound 48],"Plant response rating, Barley, Winter",[1]; [4],0
same,"Plant response rating, Barley, Winter",[1]; [5],0
same,"Plant response rating, Barley, Winter",[1]; [6],0
same,"Plant response rating, Barley, Winter",[1]; [7],70
same,"Plant response rating, Ryegrass, Italian",[2]; [4],40
same,"Plant response rating, Ryegrass, Italian",[2]; [5],40
same,"Plant response rating, Ryegrass, Italian",[2]; [6],90
same,"Plant response rating, Ryegrass, Italian",[2]; [7],100
same,"Plant response rating, Wheat, Spring",[3]; [4],0
same,"Plant response rating, Wheat, Spring",[3]; [5],35
same,"Plant response rating, Wheat, Spring",[3]; [6],60
same,"Plant response rating, Wheat, Spring",[3]; [7],75
CCc1cc(-c2ccc(F)cc2)nn1-c1c(O)cnn(C)c1=O [Compound 25],"Plant response rating, Barley, Winter",[1]; [8],0
same,"Plant response rating, Barley, Winter",[1]; [9],0
same,"Plant response rating, Barley, Winter",[1]; [10],0
same,"Plant response rating, Barley, Winter",[1]; [4],0
same,"Plant response rating, Barley, Winter",[1]; [5],0
same,"Plant response rating, Barley, Winter",[1]; [6],0
same,"Plant response rating, Barley, Winter",[1]; [7],0
same,"Plant response rating, Ryegrass, Italian",[2]; [8],0
same,"Plant response rating, Ryegrass, Italian",[2]; [9],60
same,"Plant response rating, Ryegrass, Italian",[2]; [10],80
same,"Plant response rating, Ryegrass, Italian",[2]; [11],95
same,"Plant response rating, Ryegrass, Italian",[2]; [4],25
same,"Plant response rating, Ryegrass, Italian",[2]; [5],30
same,"Plant response rating, Ryegrass, Italian",[2]; [6],60
same,"Plant response rating, Ryegrass, Italian",[2]; [7],75
same,"Plant response rating, Wheat, Spring",[3]; [8],0
same,"Plant response rating, Wheat, Spring",[3]; [9],0
same,"Plant response rating, Wheat, Spring",[3]; [10],0
same,"Plant response rating, Wheat, Spring",[3]; [4],0
same,"Plant response rating, Wheat, Spring",[3]; [5],0
same,"Plant response rating, Wheat, Spring",[3]; [6],0
same,"Plant response rating, Wheat, Spring",[3]; [7],0
C#CCOC(=O)Oc1cnn(C)c(=O)c1-n1nc(-c2ccc(Cl)cc2)cc1C [Compound 58],"Plant response rating, Barley, Winter",[1]; [4],0
same,"Plant response rating, Barley, Winter",[1]; [5],0
same,"Plant response rating, Barley, Winter",[1]; [6],0
same,"Plant response rating, Barley, Winter",[1]; [7],75
same,"Plant response rating, Ryegrass, Italian",[2]; [4],25
same,"Plant response rating, Ryegrass, Italian",[2]; [5],65
same,"Plant response rating, Ryegrass, Italian",[2]; [6],100
same,"Plant response rating, Ryegrass, Italian",[2]; [7],100
same,"Plant response rating, Wheat, Spring",[3]; [4],0
same,"Plant response rating, Wheat, Spring",[3]; [5],50
same,"Plant response rating, Wheat, Spring",[3]; [6],60
same,"Plant response rating, Wheat, Spring",[3]; [7],90
CCc1cc(-c2ccc(Cl)c(Cl)c2)nn1-c1c(O)cnn(C)c1=O [Compound 20],"Plant response rating, Barley, Winter",[1]; [8],0
same,"Plant response rating, Barley, Winter",[1]; [9],0
same,"Plant response rating, Barley, Winter",[1]; [10],20
same,"Plant response rating, Barley, Winter",[1]; [11],20
same,"Plant response rating, Ryegrass, Italian",[2]; [8],65
same,"Plant response rating, Ryegrass, Italian",[2]; [9],80
same,"Plant response rating, Ryegrass, Italian",[2]; [10],95
same,"Plant response rating, Ryegrass, Italian",[2]; [11],98
same,"Plant response rating, Wheat, Spring",[3]; [8],0
same,"Plant response rating, Wheat, Spring",[3]; [9],25
same,"Plant response rating, Wheat, Spring",[3]; [10],25
same,"Plant response rating, Wheat, Spring",[3]; [11],60
CCc1cc(-c2ccc(Cl)cc2)nn1-c1c(OC(=O)OC(C)C)cnn(C)c1=O [Compound 41],"Plant response rating, Barley, Winter",[1]; [4],10
same,"Plant response rating, Barley, Winter",[1]; [5],25
same,"Plant response rating, Barley, Winter",[1]; [6],70
same,"Plant response rating, Barley, Winter",[1]; [7],80
same,"Plant response rating, Ryegrass, Italian",[2]; [4],100
same,"Plant response rating, Ryegrass, Italian",[2]; [5],100
same,"Plant response rating, Ryegrass, Italian",[2]; [6],100
same,"Plant response rating, Ryegrass, Italian",[2]; [7],100
same,"Plant response rating, Wheat, Spring",[3]; [4],0
same,"Plant response rating, Wheat, Spring",[3]; [5],50
same,"Plant response rating, Wheat, Spring",[3]; [6],75
same,"Plant response rating, Wheat, Spring",[3]; [7],95
